The values below come from patent US20060270841A1, “Assays to monitor amyloid precursor protein processing” (priority 2002, published 2006).

The structures appear in SMILES notation.

What all share (assay type): cell-based
Assay [1] has as its system APP processing. Kind of assay: APP/TAT fusion protein with LTR-EGFP reporter (pMM321), transient transfection in H4 cells (Example 2). As to conditions: for fluorometer reading: 10 uM 458, 100,000 cells. Here is the method:
(§1) “pcDNA3.1 zeo (+) APP(1-651)SW, K612V-(M1L)TATexonI,” “pMM321,” and “pUCd5TAT” are the same as in Example 1. H4 cells (ATCC HTB-148) are a neuronal cell line.
(§2) • Day 1: Plated out 2×6 well plates of HEK293T cells and 2×6 well plates of H4 cells at 1×10^5 cells/well. • Day 2: Transfected cells with 2 μg total DNA—pcDNA3.1 zeo (+) APP(1-651)SW, K612V-(M1L)TATexonI and carrier (a pET-IN plasmid). Plate 1:
(§3) 3,4: 0.1 μg pMM321+0.1 μg pcDNA3.1 zeo (+) APP(1-651)SW, K612V-(M1L)TATexonI+1.8 μg carrier (added too 0.5×carrier to this mix in 293T cells)
Transfections for H4 cells: 6 μL Fugene/well. Combined with DNA in Optimem and incubated and added to cells according to manufacturer's instructions.
(§4) Added 10 μM L-685,458 to Plates 1 and 2, wells 2 and 4 for both cell types within 1 hour of transfection. Observed cells periodically.
(§5) Took pictures at 24, 46 hours after transfection, using AE lock to keep exposures constant between wells.
(§6) Changed media on cells at 24 hours past transfection. Kept 10 μM L-685,458 on cells in wells 2 and 4.
(§7) 100,000 cells from each well were trypsinized and placed in 0.1 mL phenol red-free media in a Costar 96-well dish and read using the fluorometer.

The next assay has as its system Aβ. In words: Production of Aβ in conditioned media of transfected 293T and H4 cells. As to conditions: 10 μM L-685,458, 1 mL conditioned media. As to the method:
1 mL of conditioned media from each well was analyzed for production of Aβ.

Assay [2] deals with APP processing. In words: APP/TAT fusion protein with LTR-EGFP reporter (pMM321), transient transfection in HEK293T cells (Example 2). As to conditions: for # Bright / # Med / # Non / # Strong: count from photographs; for fluorometer reading: 293T, 10 uM 458, 100,000 cells. As to the method: as §1, §2, §3
Transfections for HEK293T cells: 9 μL Fugene/well. Combined with DNA in Optimem and incubated and added to cells according to manufacturer's instructions.
as §4, §5, §6
Took some photographs under fluorescent and white light (white light at low intensity) to reveal fluorescent and non-fluorescent cells. Conducted a subjective analysis of the photographs to see if the amount of inhibition by 10 μL-685,458 was in any way quantifiable. Counted bright (white in the middle), strong (blue middle), medium (green) and dim/non-fluorescent cells and determined the approximate fraction of each level of expression. Results follow:
as §7

Assay [3] has as its system APP processing. In words: APP-TAT-APPct32 fusion protein with LTR β-galactosidase reporter in P4-R5 HeLa cells (Example 8). Conditions: 10 μM inhibitor. Here is the method:
P4-R5 cells are HeLa cells that contain a stably integrated β-galactosidase reporter gene under the control of the HIV1 LTR.
1.) Cell count on P4-R5 cells=7.6×10^5 cells per ml in cDMEM (−)PR. Seeded sterile white luminometer TC plates with the following cell numbers:
• 5×10^3/well=0.75 ml in 9.25 ml media • 1.0×10^4/well=1.5 ml in 8.5 ml media • Seeded 100 μL cells per well. • Incubate overnight at 37° C., 5% CO2. Day 2
2.) Made up media with appropriate dilutions of inhibitors. • On no-inhibitor controls, added 100 μL of cDMEM with 1% DMSO • On wells with Compound X, added 10 μM inhibitor in cDMEM • On wells with L-875,532, added 10 μM inhibitor in cDMEM
3.) Prior to transfection, pulled off media on P4-R5 cells and replaced with media −/+inhibitor. • FUGENE® transfection: • For FUGENE® transfection:
4.) Added 600 μL of OPTIMEM® to sterile EPPENDORF® tube and carefully added 30 μL FUGENE® to media, without touching walls of tube. Incubated at room temperature for 5 minutes. • In separate EPPENDORF® tubes, added each DNA. • Added FUGENE®/OPTIMEM® dropwise to DNA; incubated at room temperature for 15 minutes.
Added 15 μL/well of DNA/FUGENE®/OPTIMEM® dropwise to media in appropriate wells on P4-R5 cells, swirling to mix. […]
6. Read immediately in luminometer using standard file. Filled in required fields, read plate.

Assay [4] relates to APP processing. Kind of assay: APP/TAT fusion protein with LTR-GFP reporter in H4 cells, FLUOstar reading (Example 3). As to conditions: for Fluor Units: approximately 48 hours, 485 excitation/538 emission. As to the method:
1. H4 cells (ATCC HTB-148) were transfected with the various constructs listed below using 6 μL Fugene per 100 μL Optimem and 100 μL Optimem per well (6-well dishes). Transfection reactions were incubated for 30 minutes prior to adding 100 μL dropwise onto wells.
Transfections were done as follows:
1. 1 μg pMM321 (FIG. 25A-D) and 1 μg pcDNA3.1 backbone
1a. 1 μg pMM321 and 1 μg pcDNA3.1 (Invitrogen, San Diego, Calif.) backbone. Prior to transfection, 10 μM L-875,532 (γ-secretase inhibitor) was added to the well.
2. 1 μg pMM321 and 1 μg pRBR186 (FIG. 22A; APP expression vector; processing and inhibition of processing control)
2a. 1 μg pMM321 and 1 μg pRBR186. Prior to transfection, 10 μM L-875,532 was added to cells (transfection solution for 3-5 were prepared in bulk)
4. and 4a. 1 μg pMM321 and 1 μg pcDNA3.1 zeo (+) APP(1-651)SW, K612V-(M1L)TATexonI. Prior to transfection, 10 μM L-875,532 was added to the two wells.
5. and 5a. 1 μg pMM321 and 1 μg pcDNA3.1 zeo (+) APP(1-651)SW, K612V-(M1L)TATexonI. Prior to transfection, 10 μM Compound X was added to the two wells
7. 1 μg pMM321 and 1 μg pUCd5 TAT. Prior to transfection, 10 μM L-875,532 was added to the cells.
Cells were assessed by eye under a fluorescence microscope the morning following transfection (˜20 hrs).
At approximately 48 hours, cells were trypsinized, spun down, and resuspended in 100 μL PBS. The cellular contents of each well of the transfection plates were placed into one well of a 96-well fluorescence plate. Fluorescence was analyzed using the FLUOstar (485 excitation/538 emission).

Setting [5] is: 293T cells, 46 hours, 1 μg pMM321 + 0.1 μg APP/TAT vector + cmpd (10 μM).
Setting [6] is: 293T cells, 46 hours, 1 μg pMM321 + 1 μg APP/TAT vector + cmpd (10 μM), approximate fraction of cells.
[7] abbreviates: 293T cells, 46 hours, 1 μg pMM321 + 1 μg APP/TAT vector + cmpd (10 μM).

Consider `CC(C)C[C@H](NC(=O)[C@H](Cc1ccccc1)C[C@@H](O)[C@H](Cc1ccccc1)NC(=O)OC(C)(C)C)C(=O)N[C@@H](Cc1ccccc1)C(N)=O` [L-685,458, {1S-Benzyl-4R-[1-(1S-carbamoyl-2-phenylethylcarbamoyl)-1S-3-methylbutylcarbamoyl]-2R-hydroxy-5-phenylpentyl}carbamic acid tert-butyl ester], for which the fluorometer reading in the assay with APP processing [1] (H4, 0.1 ug LTRGFP, 0.1 ug APPtat) worked out at 6957; in the assay with APP processing [1] (H4, 0.1 ug LTRGFP, 1 ug APPTAT), 10031; with APP processing [1] (H4, 1 ug LTRGFP, 0.1 ug APPtat), 7136; in the assay on APP processing [1] (H4, 1 ug LTRGFP, 1 ug APPTAT), 25307; in the assay with APP processing [2] (0.1 ug LTRGFP, 0.1 ug APPtat) it was 14790; with APP processing [2] (0.1 ug LTRGFP, 1 ug APPTAT), 10491. Further, the fluorometer reading with APP processing [2] (1 ug LTRGFP, 0.1 ug APPtat) was found to be 65535; with APP processing [2] (1 ug LTRGFP, 1 ug APPTAT) it was 14321. Besides, the bright green cells/field with APP processing [1] (H4 cells, 24 hours, 0.1 μg pMM321 + 1 μg APP/TAT vector, 10 μM L-685,458) is given as 3-5 cells/field. In the assay with APP processing [1] (H4 cells, 24 hours, 1 ug pMM321 + 1 ug APP/TAT vector, 10 μM L-685,458), the “green (GFP) cells observed under the microscope” value is listed as “reduced compared with well #1”. The “inhibition of fluorescence (fluorometer)” value with APP processing [1] (H4 cells, any transfection conditions, 10 μM L-685,458) was “No inhibition of fluorescence was observed”; in the assay on APP processing [2] (293T cells, 0.1 μg APP/TAT vector + 0.1 μg pMM321, 10 μM L-685,458) it was “Inhibition of fluorescence was also observed”; in the assay with APP processing [2] (293T cells, 1 μg APP/TAT vector + 1 μg pMM321, 10 μM L-685,458) it was “reduced to background levels”. Besides, the “Aβ in conditioned media” value in the assay with Aβ is on record as “completely inhibited to background levels”. Moreover, the “inhibition of GFP” value in the assay with APP processing [2] (10 μM L-685,458, same wells as the Aβ analysis (293T and H4 cells)) is reported as “substantial inhibition of GFP was not observed”. Also, in the assay with APP processing [2] (293T cells, 1 μg pMM321 + 0.1 μg APP/TAT vector, with vs without cmpd), the “effect on numbers of fluorescing cells (Table 1, second run)” value was “fewer bright and strong fluorescing cells as well as more non-fluorescent cells”. Besides, in the assay on APP processing [2] (293T cells, 1 μg pMM321 + 1 μg APP/TAT vector, with vs without cmpd), the “effect on numbers of fluorescing cells (Table 1, first run)” value is “fewer strong and medium fluorescing cells as well as more non-fluorescent cells”. Further, the “# Bright” value in the assay on APP processing [2] (setting [5]) is given as 23; in the assay with APP processing [2] (setting [7]) it was “none”. Also, the “# Med” value in the assay on APP processing [2] (setting [5]) is reported as 149; with APP processing [2] (setting [7]), 66. Besides, the entries for the “# Non” value in the assay with APP processing [2] (setting [5]) and with APP processing [2] (setting [7]) were 194 and 521, respectively. For the same molecule, the “# Strong” value was determined as 32 with APP processing [2] (setting [5]) and 5 with APP processing [2] (setting [7]). In addition, in the assay on APP processing [2] (setting [6]), the “% Med” value was found to be 11%. Also, in the assay on APP processing [2] (setting [6]), the “% Non” value is given as 88%. In the assay on APP processing [2] (setting [6]), the “% Strong” value is reported as 0.8%. Further, the “green (GFP) cells observed” value was “Bright, medium, and dim green cells” in the assay with APP processing [2] (HEK293T cells, 24 hours, 0.1 μg pMM321 + 0.1 μg APP/TAT vector, 10 μM L-685,458); “Bright, medium, and dim green cells” with APP processing [2] (HEK293T cells, 24 hours, 0.1 μg pMM321 + 1 μg APP/TAT vector, 10 μM L-685,458); “Fewer bright green cells/field but intensity does not appear strongly diminished” with APP processing [2] (HEK293T cells, 24 hours, 1 μg pMM321 + 0.1 μg APP/TAT vector, 10 μM L-685,458). The “green (GFP) cells observed, of 15 cells” value with APP processing [2] (HEK293T cells, 24 hours, 1 μg pMM321 + 1 μg APP/TAT vector, 10 μM L-685,458) is listed as 6 very dim, 5 dim, 1 medium, 3 bright.
With `C[C@H](NC(=O)Cc1cc(F)cc(F)c1)C(=O)N[C@H]1N=C(c2ccccc2)c2ccccc2N(C)C1=O` [L-875,532], the “transactivation of the LTR by pUCd5TAT (control)” value in the assay on APP processing [3] is “not affected by either inhibitor”. In addition, the “Fluor Units” value in the assay on APP processing [4] (pMM321 + APP-TAT-ct32, 10 μM inhibitor) worked out at 8283 Fluor Units; in the assay with APP processing [4] (pMM321 + pRBR186 (control), 10 μM inhibitor) it was 2161 Fluor Units; in the assay with APP processing [4] (pMM321 alone (control), 10 μM inhibitor), 3443 Fluor Units. Further, the “decrease of fluorescence (fold)” value in the assay on APP processing [4] (pMM321 + APP/TAT vector, 10 μM inhibitor vs no inhibitor) is given as 2.5 ×. Moreover, the “fluorescence assessed by eye under a fluorescence microscope” value with APP processing [4] (~20 hrs, 1 μg pMM321 + 1 μg APP/TAT vector, 10 μM inhibitor) was “Clear inhibition of fluorescence”.
